The term kinact denotes the maximal first-order rate at which the target is inactivated. A word on the kinact/KI: it is the maximal inactivation rate divided by the concentration that gives half of it. The term logD denotes the decadic logarithm of the distribution of all forms, ionised or not, between an organic phase and buffer at a given pH.

Peptide text beside a SMILES is read from it. * marks the point of attachment. X1 = C=CC(=O)NCCCCC(NC(=O)OCc1ccccc1)C(=O)N1CCN(C(=O)C(CCC(=O)*)NC(=O)c2cccc3ccccc23)CC1 Some results are limits rather than exact numbers.

The source of these data is article PMC10454375, “Cell-Impermeable Inhibitors Confirm That Intracellular Human Transglutaminase 2 Is Responsible for the Transglutaminase-Associated Cancer Phenotype” (International Journal of Molecular Sciences, 2023).

Series [1] addresses T1, Recombinant human TG2 (Homo sapiens, UniProt P21980).
T1 construct: GST (with PSP protease site, plasmid pGST-PSP-rhTG2) (N, cleaved yes); made in house; host or cells: E. coli (BL21)
T1 sequence (P21980 1-687): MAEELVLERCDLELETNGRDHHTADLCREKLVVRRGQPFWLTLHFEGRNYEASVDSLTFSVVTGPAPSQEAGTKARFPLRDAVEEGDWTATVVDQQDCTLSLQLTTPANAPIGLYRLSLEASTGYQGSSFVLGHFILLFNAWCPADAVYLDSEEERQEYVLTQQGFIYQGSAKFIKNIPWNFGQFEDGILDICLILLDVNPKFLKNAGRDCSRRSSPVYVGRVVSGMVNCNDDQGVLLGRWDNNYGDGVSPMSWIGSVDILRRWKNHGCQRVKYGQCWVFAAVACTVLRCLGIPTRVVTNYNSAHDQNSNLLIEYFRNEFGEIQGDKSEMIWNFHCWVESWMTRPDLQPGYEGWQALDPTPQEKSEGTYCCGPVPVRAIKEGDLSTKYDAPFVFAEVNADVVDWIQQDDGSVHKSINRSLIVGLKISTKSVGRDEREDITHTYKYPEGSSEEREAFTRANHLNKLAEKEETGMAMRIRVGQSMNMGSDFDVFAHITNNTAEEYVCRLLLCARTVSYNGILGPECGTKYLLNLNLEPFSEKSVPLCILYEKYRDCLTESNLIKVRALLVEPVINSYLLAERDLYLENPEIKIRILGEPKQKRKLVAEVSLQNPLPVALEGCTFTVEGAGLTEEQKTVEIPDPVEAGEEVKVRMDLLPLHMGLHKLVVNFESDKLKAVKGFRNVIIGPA
Put plainly: rhTG2 inhibition assay, continuous chromogenic substrate AL5, Kitz and Wilson conditions. In kind it is biochemical. Particulars: for kinact / Ki: * compounds fitted to double reciprocal model, 25 °C, pH 6.9, 100 µM AL5; for kinact/KI: * double reciprocal model, ** lowest concentrations of saturation plot fitted to a linear model; for Ki: irreversible inhibition. An excerpt: Relative to the original scaffold, we expected the potency of these novel chemical biology tools to decrease slightly, due to the additional bulk incorporated on the glutamate sidechain. Although we expected the sidechain moiety to be directed into bulk solvent, we were concerned that its mass and charge would disfavor the binding interaction. Therefore, we kinetically characterized these probes as rigorously as possible, in order to determine their relative affinity and reactivity. For most inhibitors we have made, including the parent inhibitor AA9 (Figure 1), we have been able to measure kinetic parameters under Kitz and Wilson conditions. This experimental approach is based on the use of a continuous activity assay and the measurement of first-order rate constants for the time-dependent inactivation of enzyme (see Figure 2A and Figures S1–S5 in Supplementary Materials). The dependence of these observed rate constants (kobs) on the inhibitor concentration divided by alpha ([I]/α) can then be fitted to a hyperbolic saturation model where the upper plateau represents the rate constant of inactivation (kinact), and the concentration providing half the rate constant of inactivation represents KI (Figure 2B). […] To compensate for this, the overall efficiency of the inhibitor (kinact/KI) can be derived from the slope of the linear region of the saturation plot (Figure 2C). To gauge the individual parameters, a double reciprocal fitting was also employed where KI can be calculated from the x-axis intercept and kinact can be calculated from the y-axis intercept (Figure 2D).
Recombinant human TG2 was expressed and purified using previously published protocols. The inhibition was monitored using a continuous chromogenic substrate AL5 [38] under Kitz and Wilson conditions. In brief, 125 µL of assay buffer composed of 111.11 mM MOPS, 15.56 CaCl2 pH 6.9 was added to a 1.5 mL Eppendorf tube to achieve final assay concentrations of 50 mM MOPS and […] CaCl2. To the tube was then added the respective concentration of inhibitor from an aqueous working stock (<5% DMSO final conditions). Various volumes of water were then added to ensure the final volumes were equal. The AL5 substrate was added to the Eppendorf tube as a 5 µL 5.56 mM solution in DMSO to obtain a final assay concentration of 100 µM. A 96-well polystyrene microplate then had 180 µL of the assay mixture added to it. The enzymatic reaction was finally initiated by addition of 20 µL 5 mU prediluted TG2 in assay buffer using a multichannel pipette. The reaction was monitored at 405 nm using a BioTek Synergy 4 plate reader for 20 min at 25 °C. A positive control with no inhibitor and a blank with no enzyme nor inhibitor were also included. The blank subtracted kinetic curves were then analyzed. The observed first-order rate constants of inactivation were gathered through a one-phase association model using the GraphPad software package. The rate constants were then fit to various models to elucidate the inhibition parameters. If saturation was achieved, they were fit to a saturation model versus the inhibitor concentration divided by alpha (where α=1+Substrate/Km ). A linear regression of the linear region of this saturation fitting was calculated to obtain a ratio of kinact/KI. A further double reciprocal model was used if saturation could not be observed due to the limitations in sensitivity of the assay or if solubility issues were present.

Series [2] is described as follows: Log D. The class given is physicochemical. The source says:
Table 2 Representative pharmacokinetic properties for cell-impermeable inhibitors 17 and 18. | column: 17; 18 (NCEG2)

As to `C=CC(=O)NCCCCC(NC(=O)OCc1ccccc1)C(=O)N1CCN(C(=O)C(CCC(=O)NCC(=O)NCC(=O)NCC(=O)NC(CC(=O)O)C(=O)NC(CC(=O)O)C(=O)NC(CC(=O)O)C(=O)O)NC(=O)c2cccc3ccccc23)CC1` (centres unmarked) [Compound 18] (X1-GGGDDD-OH; configuration not given here), in series [1], the inactivation rate constant (kinact) was 0.0388 s⁻¹, the kinact/KI is 9380 M⁻¹ s⁻¹ and the Ki is 4100 ± 2100 nM. Further, the logD in series [2] was less than -2.63.
As to `C=CC(=O)NCCCCC(NC(=O)OCc1ccccc1)C(=O)N1CCN(C(=O)C(CCC(=O)NCCCCCC(=O)NC(CC(=O)O)C(=O)NC(CC(=O)O)C(=O)NC(CC(=O)O)C(=O)O)NC(=O)c2cccc3ccccc23)CC1` (centres unmarked) [Compound 17], in series [1], the kinact was 0.0065 s⁻¹, the kinact/KI was 6820 M⁻¹ s⁻¹ and the Ki was found to be 1000 ± 300 nM. This compound came in with a logD in series [2] of less than -2.73.
